From article PMC4269219 (International journal of andrology, 2010)

Assays:
[1] = Steady-state pharmacokinetics of oral TU alone or with finasteride; assay type: in vivo, men; details: seventh day of dosing, all treatments (Fig. 2A)
5α-reductase = details: finasteride 2 mg daily; ref Steiner, 1996; cited from earlier work
[2] = system: endogenous testosterone production; details: 300 µg/kg subcutaneous, normal healthy men; ref Herbst et al., 2004; cited from earlier work

## CCCCCCCCCCC(=O)O[C@H]1CC[C@H]2[C@@H]3CCC4=CC(=O)CC[C@]4(C)[C@H]3CC[C@]12C [TU + placebo, testosterone undecanoate]
[1]
  Time after dosing at which mean serum testosterone concentrations peaked: 4 h

## CC(C)(C)NC(=O)[C@H]1CC[C@H]2[C@@H]3CC[C@H]4NC(=O)C=C[C@]4(C)[C@H]3CC[C@]12C [finasteride]
5α-reductase
  Reduction of circulating levels of DHT: 50%

## acyline
[2]
  Duration of testosterone suppression: 2 weeks
  Time to suppression of testosterone to castrate levels: ≤ 24 h
